Measurements taken from PubChem BioAssay (NCI).
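Exposure lasted 48 hours, with cells grown in 96-well plates and compounds tested at five concentrations. The concentration for 50% growth inhibition is given as GI50. TGI: total growth inhibition.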

Key:
Experiment in all cases: NCI anticancer screen, dose series, 48 h; in the data active means GI50 below about 0.43 µM; inactive means the rest
786-0 renal = system: 786-0 renal
A498 renal = system: A498 renal
A549 NSCLC = system: A549 NSCLC
ACHN renal = system: ACHN renal
BT-549 breast = system: BT-549 breast
CAKI-1 renal = system: CAKI-1 renal
CCRF-CEM leukemia = system: CCRF-CEM leukemia
COLO 205 colon = system: COLO 205 colon
DU-145 prostate = system: DU-145 prostate
EKVX NSCLC = system: EKVX NSCLC
HCC-2998 colon = system: HCC-2998 colon
HCT-116 colon = system: HCT-116 colon
HCT-15 colon = system: HCT-15 colon
HL-60(TB) leukemia = system: HL-60(TB) leukemia
HOP-62 NSCLC = system: HOP-62 NSCLC
HOP-92 NSCLC = system: HOP-92 NSCLC
HS 578T breast = system: HS 578T breast
HT29 colon = system: HT29 colon
IGROV1 ovarian = system: IGROV1 ovarian
K-562 leukemia = system: K-562 leukemia
KM12 colon = system: KM12 colon
LOX IMVI melanoma = system: LOX IMVI melanoma
M14 melanoma = system: M14 melanoma
MALME-3M melanoma = system: MALME-3M melanoma
MCF7 breast = system: MCF7 breast
MDA-MB-231 breast = system: MDA-MB-231 breast
MDA-MB-435 = system: MDA-MB-435
MDA-MB-468 breast = system: MDA-MB-468 breast
MOLT-4 leukemia = system: MOLT-4 leukemia
NCI-H226 lung = system: NCI-H226 lung
NCI-H23 lung = system: NCI-H23 lung
NCI-H460 lung = system: NCI-H460 lung
NCI-H522 lung = system: NCI-H522 lung
OVCAR-3 ovarian = system: OVCAR-3 ovarian
OVCAR-4 ovarian = system: OVCAR-4 ovarian
OVCAR-5 ovarian = system: OVCAR-5 ovarian
OVCAR-8 ovarian = system: OVCAR-8 ovarian
PC-3 prostate = system: PC-3 prostate
RPMI-8226 leukemia = system: RPMI-8226 leukemia
RXF 393 renal = system: RXF 393 renal
SF-268 CNS = system: SF-268 CNS
SF-295 CNS = system: SF-295 CNS
SF-539 CNS = system: SF-539 CNS
SK-MEL-2 melanoma = system: SK-MEL-2 melanoma
SK-MEL-28 melanoma = system: SK-MEL-28 melanoma
SK-MEL-5 melanoma = system: SK-MEL-5 melanoma
SK-OV-3 ovarian = system: SK-OV-3 ovarian
SN12C renal = system: SN12C renal
SNB-19 CNS = system: SNB-19 CNS
SR leukemia = system: SR leukemia
SW-620 colon = system: SW-620 colon
TK-10 renal = system: TK-10 renal
U251 CNS = system: U251 CNS
UACC-257 melanoma = system: UACC-257 melanoma
UACC-62 melanoma = system: UACC-62 melanoma
UO-31 renal = system: UO-31 renal

Cc1ccc2nc(COc3ccc(C(=O)NNC(=O)Nc4ccc(Cl)c(C(F)(F)F)c4)cc3)[nH]c2c1
19.8 µM: TGI (UACC-62 melanoma)
36.9 µM: TGI (SW-620 colon)
22 µM: TGI (RXF 393 renal)
23.4 µM: TGI (NCI-H460 lung)
41.6 µM: TGI (786-0 renal)
54.1 µM: TGI (SK-OV-3 ovarian)
18.7 µM: TGI (LOX IMVI melanoma)
58 µM: TGI (UACC-257 melanoma)
17.2 µM: TGI (MCF7 breast)
25.9 µM: TGI (SF-295 CNS)
71.1 µM: TGI (A549 NSCLC)
7.77 µM: TGI (MDA-MB-468 breast)
21.6 µM: TGI (HOP-62 NSCLC)
50 µM: TGI (SN12C renal)
36.2 µM: TGI (PC-3 prostate)
44.7 µM: TGI (SK-MEL-2 melanoma)
36.5 µM: TGI (MDA-MB-435)
9.25 µM: TGI (SK-MEL-28 melanoma)
26 µM: TGI (MDA-MB-231 breast)
29.7 µM: TGI (NCI-H23 lung)
24 µM: TGI (HOP-92 NSCLC)
88.1 µM: TGI (BT-549 breast)
5.06 µM: TGI (MALME-3M melanoma)
64.2 µM: TGI (CAKI-1 renal)
19.9 µM: TGI (SNB-19 CNS)
53.9 µM: TGI (HS 578T breast)
84.9 µM: TGI (HT29 colon)
inactive: GI50 (786-0 renal) 14.6 µM | GI50 (A498 renal) 75.9 µM | GI50 (A549 NSCLC) 7.96 µM | GI50 (ACHN renal) 27.4 µM | GI50 (BT-549 breast) 13 µM | GI50 (CAKI-1 renal) 21 µM | GI50 (CCRF-CEM leukemia) 51.2 µM | GI50 (COLO 205 colon) 21.7 µM | GI50 (DU-145 prostate) 30.4 µM | GI50 (EKVX NSCLC) 41.8 µM | GI50 (HCC-2998 colon) 28.8 µM | GI50 (HCT-116 colon) 45.1 µM | GI50 (HCT-15 colon) 49.1 µM | GI50 (HL-60(TB) leukemia) > 100 µM | GI50 (HOP-62 NSCLC) 5.68 µM | GI50 (HOP-92 NSCLC) 5.38 µM | GI50 (HS 578T breast) 2.98 µM | GI50 (HT29 colon) 19.5 µM | GI50 (IGROV1 ovarian) 9.96 µM | GI50 (K-562 leukemia) 6.1 µM | GI50 (KM12 colon) 29.5 µM | GI50 (LOX IMVI melanoma) 4.04 µM | GI50 (M14 melanoma) 8.45 µM | GI50 (MALME-3M melanoma) 2.06 µM | GI50 (MCF7 breast) 3.61 µM | GI50 (MDA-MB-231 breast) 6.31 µM | GI50 (MDA-MB-435) 5.08 µM | GI50 (MDA-MB-468 breast) 2.77 µM | GI50 (MOLT-4 leukemia) 21.6 µM | GI50 (NCI-H226 lung) 12.2 µM | GI50 (NCI-H23 lung) 10.8 µM | GI50 (NCI-H460 lung) 7.24 µM | GI50 (NCI-H522 lung) 13.8 µM | GI50 (OVCAR-3 ovarian) 24.2 µM | GI50 (OVCAR-4 ovarian) 18 µM | GI50 (OVCAR-5 ovarian) 26.6 µM | GI50 (OVCAR-8 ovarian) 5.54 µM | GI50 (PC-3 prostate) 6.71 µM | GI50 (RPMI-8226 leukemia) 49.8 µM | GI50 (RXF 393 renal) 6.32 µM | GI50 (SF-268 CNS) 6.57 µM | GI50 (SF-295 CNS) 12.3 µM | GI50 (SF-539 CNS) 4 µM | GI50 (SK-MEL-2 melanoma) 15.9 µM | GI50 (SK-MEL-28 melanoma) 2.94 µM | GI50 (SK-MEL-5 melanoma) 11.8 µM | GI50 (SK-OV-3 ovarian) 21.2 µM | GI50 (SN12C renal) 10.3 µM | GI50 (SNB-19 CNS) 5.59 µM | GI50 (SR leukemia) 8.46 µM | GI50 (SW-620 colon) 10.7 µM | GI50 (TK-10 renal) 49.4 µM | GI50 (U251 CNS) 4.13 µM | GI50 (UACC-257 melanoma) 5.11 µM | GI50 (UACC-62 melanoma) 5.31 µM | GI50 (UO-31 renal) > 100 µM
> 100 µM: TGI (A498 renal) | TGI (ACHN renal) | TGI (CCRF-CEM leukemia) | TGI (DU-145 prostate) | TGI (EKVX NSCLC) | TGI (HCC-2998 colon) | TGI (HCT-116 colon) | TGI (HCT-15 colon) | TGI (HL-60(TB) leukemia) | TGI (K-562 leukemia) | TGI (KM12 colon) | TGI (M14 melanoma) | TGI (MOLT-4 leukemia) | TGI (OVCAR-3 ovarian) | TGI (OVCAR-5 ovarian) | TGI (RPMI-8226 leukemia) | TGI (SF-268 CNS) | TGI (SR leukemia) | TGI (TK-10 renal) | TGI (UO-31 renal)
20.1 µM: TGI (SF-539 CNS)
28.4 µM: TGI (SK-MEL-5 melanoma)
27.2 µM: TGI (IGROV1 ovarian)
39.7 µM: TGI (NCI-H226 lung) | TGI (NCI-H522 lung)
17.9 µM: TGI (U251 CNS)
47.9 µM: TGI (OVCAR-8 ovarian)
71.8 µM: TGI (COLO 205 colon)
66.8 µM: TGI (OVCAR-4 ovarian)
